Data reported in ChEMBL document CHEMBL3784922, “D-Amino acid oxidase inhibitors based on the 5-hydroxy-1,2,4-triazin-6(1H)-one scaffold” (Bioorg Med Chem Lett, 2016).
pIC50: −log10 of the molar value.

Tests used:
D-amino-acid oxidase = D-amino-acid oxidase (Homo sapiens, UniProt P14920); experiment: Inhibition of recombinant human DAAO assessed as oxidative deamination of D-serine in presence of molecular oxygen and FAD after 20 mins
[1] = Metabolic stability in mouse liver microsomes assessed as compound remaining after 60 mins by LC-MS/MS analysis in presence of NADPH; assay type: ADME; settings: for Stability: microsomes, 1 h
[2] = Metabolic stability in mouse liver microsomes assessed as compound remaining after 60 mins by LC-MS/MS analysis in presence of UDPGA; assay type: ADME; settings: for Stability: microsomes, 1 h
Mus musculus [3] = experiment: In-vivo inhibition of DAAO in CD-1 mouse assessed as increase in D-serine AUC (0 to 6 hrs) at 30 mg/kg, po relative to control; assay type: functional
[4] = Tmax in CD-1 mouse plasma by HPLC-MS analysis; assay type: ADME, organism-based
Mus musculus [5] = experiment: AUC (0 to 6 hrs) in CD-1 mouse plasma at 30 mg/kg, po by HPLC-MS analysis; assay type: ADME, organism-based; parameters: time < 6 hr, dose 30 mg/kg, route oral; settings: in vivo
[6] = Plasma protein binding in CD-1 mouse at 30 mg/kg, po by ultrafiltration technique; assay type: ADME, organism-based; settings: read-out: PPB (converted)
Mus musculus [7] = experiment: In-vivo inhibition of DAAO in CD-1 mouse assessed as plasma clearance of D-serine at 30 mg/kg, po after 3 hrs; assay type: organism-based
Mus musculus [8] = experiment: In-vivo inhibition of DAAO in CD-1 mouse assessed as plasma clearance of D-serine at 30 mg/kg, po upto 3 hrs; assay type: organism-based
Mus musculus [9] = species on record: Mus musculus; settings: CD-1
[10] = liver microsomes, read-out: Stability

Sequence of D-amino-acid oxidase (P14920 whole entry): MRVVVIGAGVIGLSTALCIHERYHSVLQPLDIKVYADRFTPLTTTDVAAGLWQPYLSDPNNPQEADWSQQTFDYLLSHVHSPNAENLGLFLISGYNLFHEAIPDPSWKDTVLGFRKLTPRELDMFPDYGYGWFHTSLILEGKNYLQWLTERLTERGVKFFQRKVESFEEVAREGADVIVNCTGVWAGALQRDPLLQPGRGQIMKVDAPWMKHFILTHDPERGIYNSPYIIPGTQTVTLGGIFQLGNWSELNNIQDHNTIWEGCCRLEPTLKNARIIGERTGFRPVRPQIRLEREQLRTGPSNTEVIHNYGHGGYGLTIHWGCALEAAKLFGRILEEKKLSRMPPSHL

SMILES	pIC50 (D-amino-acid oxidase)	other results
O=c1[nH]nc(SCc2ccc(Cl)cc2)nc1O	7.52	–
O=c1[nH]nc(SCc2ccc3cc(F)ccc3c2)nc1O	–	Stability [1]: 91%; Stability [2]: 95%
O=c1[nH]c(=O)n(Cc2cccc3ccccc23)nc1O	–	remaining at 1 h [1, 10]: > 99%; remaining at 1 h [2, 10]: > 99%
O=c1[nH]nc(SCC2CCCCC2)nc1O	6.22	–
O=c1[nH]nc(Cc2ccccc2)nc1O	7.15	–
O=c1[nH]nc(SCc2ccc(-c3ccccc3)cc2)nc1O	7.05	–
O=c1[nH]nc(SCc2cccc(-c3ccccc3)c2)nc1O	6.15	–
O=c1[nH]nc(SCc2ccccc2)nc1O	7.00	–
O=c1[nH]nc(CCc2ccccc2)nc1O	7.22	fold change (FC) (Mus musculus [3]): 1.7; Stability [1]: 79%; Stability [2]: 98%; Tmax [4]: 30 min; AUC (Mus musculus [5]): 8070 ng·h/mL; fraction unbound [6]: 0.26; inhibition (INH) (Mus musculus [7]): Not Active; inhibition (INH) (Mus musculus [8]): Active; AUC (Mus musculus [9]): 74200 ng·h/mL
O=c1[nH]nc(SCCc2ccccc2)nc1O	4.40	–
CC(C)(C)c1ccc(CSc2n[nH]c(=O)c(O)n2)cc1	6.52	–
O=c1[nH]nc(SCc2noc3ccccc23)nc1O	6.70	–
O=c1[nH]nc(CCCc2ccccc2)nc1O	5.40	–
O=c1[nH]nc(SCc2ccc(Cl)c(Cl)c2)nc1O	7.30	–
O=c1[nH]nc(SCc2ccc(I)cc2)nc1O	7.30	–
